Experimental data reported in US20210369812A1, “OSTEOINDUCTIVE PEPTIDES, COMPOSITIONS, IMPLANTS, AND METHODS OF USE” (The Board of Regents of the University of Oklahoma, priority 2018, published 2021).

Key:
[1] = test system: rat radial bone defect model; assay: Rat radial bone defect model, Micro-CT; type: in vivo; details: phage-coated titanium scaffold seeded with hMSCs; 4 weeks
Procedure: The titanium alloy scaffolds were rinsed 3 times in distilled water followed by autoclaving. The scaffolds were then coated in poly-L-lysine by soaking in 2.5 ml of poly-L-lysine per 5 scaffolds in a 24-well cell culture plate for 30 minutes. The poly-L-lysine was then discarded, and the scaffolds were allowed to dry in a sterile hood overnight. In a sterile cell culture hood, 2 scaffolds were loaded into the sterile freeze casting holder (sterilized by autoclaving). 2 ml of sterile, filtered phage solution (3×10^13 phages/ml) was pipetted into the casting holder and directly into the pores of the titanium scaffolds. The solution was allowed to incubate at room temperature for 30 minutes so that phages could stick better to the scaffold. The scaffolds and phage solution were then freeze casted in the double-sided freeze casting machine with a temperature drop of 3° C./min on the lower contact point and a constant 0° C. on the upper contact point. The final temperature for the lower contact point was −135° C. The frozen scaffold and solution were then freeze dried overnight. For cell seeding, the scaffold was then soaked overnight in cell medium followed by seeding 3.6×10^4 hMSCs onto the scaffold the next day in new medium. After 1 day of culturing, the scaffolds were implanted into the rat radial bone defect model. […]

[2] = test system: rat radial bone defect model; assay: Histological staining (HE, Von Kossa) of implanted scaffolds; type: in vivo; details: 4-week implants
Description: After 4 weeks and 12 weeks, animals (N=5) were euthanized by CO2 asphyxiation. The sections of the arms containing the implant (at the radius bone) were then cut way from the rest of the animal using bone cutters. The 4-week implant samples were fixed in 10% (w/v) neutral formalin solution for 4 days. The 12-week samples were fixed in 4% paraformaldehyde for 4 days. Paraformaldehyde was used as it can produce better CD31 vascularization stains relative to fixing with formalin. The samples were then placed in a solution of 70% ethanol to 30% water (v/v).
The tissue sections were deparaffinized and hydrated with distilled water. Hematoxylin was applied to the sample with enough volume to cover the tissue section followed by incubation for 5 min. The mounted tissue slide was then rinsed in 2 changes of distilled water (sections were allowed to soak for 15 sec on each exchange of water). Enough Bluing Reagent was then added to the tissue section to completely cover it followed by incubation for 10-15 sec. The slides were then rinsed again in 2 changes of distilled water allowing 15 sec of contact with the water each time. The slides were then dipped in 100% ethanol for 10 sec. The excess ethanol was blotted off. Enough Eosin Y Solution was then added to completely cover the tissue section followed by incubation for 2-3 min. The slides were then rinsed in 100% ethanol for 10 sec. […]

VHVPLHRGAVSA (Completely synthesized in the lab - Ph.D.-12 Phage Display Peptide Library Kit (New England Biolabs))
Healing of bone defect (Micro-CT) [1]: Increased healing was best observed
New bone tissue / calcium deposits (Von Kossa stain) [2]: New bone tissue was observed to be best
